Source: PubChem BioAssay (NCI)
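A five-concentration, 48-hour dose response in 96-well plates underlies each endpoint, interpolated linearly between surrounding concentrations. At the TGI there is no net growth.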

Key:
Test in all cases: NCI tumour cell line growth inhibition, 48 h
[1] = system: EKVX NSCLC
[2] = system: P388/ADR leukemia
[3] = system: NCI-H522 lung
[4] = system: HOP-18 NSCLC
[5] = system: HS 578T breast
[6] = system: DMS 114 small cell lung
[7] = system: MCF7 breast
[8] = system: SF-539 CNS
[9] = system: NCI-H226 lung
[10] = system: M14 melanoma
[11] = system: KM20L2 colon
[12] = system: M19-MEL melanoma
[13] = system: SNB-78 CNS
[14] = system: XF 498 CNS
[15] = system: SNB-75 CNS
[16] = system: 786-0 renal
[17] = system: HOP-62 NSCLC
[18] = system: UO-31 renal
[19] = system: COLO 205 colon
[20] = system: SF-295 CNS
[21] = system: MOLT-4 leukemia
[22] = system: UACC-62 melanoma
[23] = system: SN12K1 renal
[24] = system: NCI-H460 lung
[25] = system: MDA-N
[26] = system: OVCAR-5 ovarian
[27] = system: SNB-19 CNS
[28] = system: BT-549 breast
[29] = system: SW-620 colon
[30] = system: LOX IMVI melanoma
[31] = system: HCC-2998 colon
[32] = system: DLD-1 colon
[33] = system: HOP-92 NSCLC
[34] = system: T-47D breast
[35] = system: A549 NSCLC
[36] = system: CAKI-1 renal
[37] = system: SK-MEL-5 melanoma
[38] = system: NCI/ADR-RES ovarian
[39] = system: HL-60(TB) leukemia
[40] = system: OVCAR-8 ovarian
[41] = system: HCT-116 colon
[42] = system: OVCAR-4 ovarian
[43] = system: UACC-257 melanoma
[44] = system: OVCAR-3 ovarian
[45] = system: PC-3 prostate
[46] = system: TK-10 renal
[47] = system: SF-268 CNS
[48] = system: SR leukemia
[49] = system: RPMI-8226 leukemia
[50] = system: MDA-MB-435
[51] = system: KM12 colon
[52] = system: MALME-3M melanoma
[53] = system: P388 leukemia
[54] = system: RXF 393 renal
[55] = system: IGROV1 ovarian
[56] = system: DU-145 prostate
[57] = system: U251 CNS
[58] = system: SK-MEL-28 melanoma
[59] = system: HCT-15 colon
[60] = system: NCI-H23 lung
[61] = system: SK-MEL-2 melanoma
[62] = system: MDA-MB-231 breast
[63] = system: DMS 273 small cell lung
[64] = system: SK-OV-3 ovarian
[65] = system: HT29 colon
[66] = system: A498 renal
[67] = system: K-562 leukemia
[68] = system: CCRF-CEM leukemia
[69] = system: SN12C renal
[70] = system: ACHN renal

For `CCC1(c2ccc(N)cc2)CCC(=O)NC1=O` (stereo not drawn), the TGI [1] was > 5 mM, the TGI [2] was > 2.81 mM and the TGI [3] was 4.95 mM. For the same compound, the TGI [4] was > 4.91 mM, the TGI [5] was > 5 mM and the TGI [6] was > 4.32 mM. For the same compound, the TGI [7] was > 5 mM, the TGI [8] was > 5 mM and the TGI [9] was > 4.82 mM. The TGI [10] was > 4.56 mM, the TGI [11] was > 5 mM and the TGI [12] was > 4.74 mM. It also gave a TGI [13] of 4.97 mM, a TGI [14] of 4.26 mM and a TGI [15] of 4.49 mM. The TGI [16] was > 5 mM, the TGI [17] was > 1.58 mM and the TGI [18] was > 3.95 mM. For the same compound, the TGI [19] was 3.07 mM, the TGI [20] was > 3.87 mM and the TGI [21] was > 3.75 mM. The TGI [22] was > 4.51 mM, the TGI [23] was > 5 mM and the TGI [24] was > 5 mM. The TGI [25] was > 5 mM, the TGI [26] was > 5 mM and the TGI [27] was > 5 mM. The TGI [28] was > 5 mM, the TGI [29] was > 3.97 mM and the TGI [30] was > 3.97 mM. For the same compound, the TGI [31] was > 5 mM, the TGI [32] was > 5 mM and the TGI [33] was 3.56 mM. The TGI [34] was > 4.73 mM, the TGI [35] was > 5 mM and the TGI [36] was 4.31 mM. For the same compound, the TGI [37] was 3.67 mM, the TGI [38] was 4.82 mM and the TGI [39] was 3.63 mM. For the same compound, the TGI [40] was > 5 mM, the TGI [41] was > 5 mM and the TGI [42] was 4.94 mM. The TGI [43] was > 4.88 mM, the TGI [44] was > 3.97 mM and the TGI [45] was 4.55 mM. For the same compound, the TGI [46] was 4.89 mM, the TGI [47] was > 5 mM and the TGI [48] was > 5 mM. The TGI [49] was > 5 mM, the TGI [50] was > 5 mM and the TGI [51] was > 3.87 mM. For the same compound, the TGI [52] was > 4.86 mM, the TGI [53] was > 5 mM and the TGI [54] was > 3.97 mM. For the same compound, the TGI [55] was > 4.85 mM, the TGI [56] was > 5 mM and the TGI [57] was > 4.06 mM. For the same compound, the TGI [58] was > 5 mM, the TGI [59] was > 5 mM and the TGI [60] was > 5 mM. The TGI [61] was > 5 mM, the TGI [62] was > 5 mM and the TGI [63] was > 5 mM. The TGI [64] was 1.95 mM, the TGI [65] was > 3.75 mM and the TGI [66] was > 5 mM. The TGI [67] was > 5 mM, the TGI [68] was > 1.99 mM and the TGI [69] was > 5 mM. The TGI [70] was > 5 mM.

With `O=C(NC(Cc1ccc(Cl)cc1)C(=O)O)c1ccc(I)cc1` (stereo not drawn) the TGI [2] was > 0.1 mM, the TGI [3] was > 0.1 mM and the TGI [4] was > 0.1 mM. For the same compound, the TGI [7] was > 0.1 mM, the TGI [8] was > 0.1 mM and the TGI [9] was > 0.1 mM. For the same compound, the TGI [12] was > 0.1 mM, the TGI [13] was > 0.1 mM and the TGI [14] was > 0.1 mM. The TGI [15] was > 0.1 mM, the TGI [17] was > 0.1 mM and the TGI [18] was > 0.1 mM. For the same compound, the TGI [19] was > 0.1 mM, the TGI [20] was > 0.1 mM and the TGI [21] was > 0.1 mM. The TGI [22] was > 0.1 mM, the TGI [23] was > 0.1 mM and the TGI [24] was > 0.1 mM. For the same compound, the TGI [26] was > 0.1 mM, the TGI [27] was > 0.1 mM and the TGI [29] was > 0.1 mM. For the same compound, the TGI [30] was > 0.1 mM, the TGI [32] was > 0.1 mM and the TGI [33] was > 0.1 mM. For the same compound, the TGI [35] was > 0.1 mM, the TGI [36] was > 0.1 mM and the TGI [37] was > 0.1 mM. The TGI [38] was > 0.1 mM, the TGI [39] was > 0.1 mM and the TGI [40] was > 0.1 mM. The TGI [41] was > 0.1 mM, the TGI [42] was > 0.1 mM and the TGI [43] was > 0.1 mM. The TGI [44] was > 0.1 mM, the TGI [47] was > 0.1 mM and the TGI [49] was > 0.1 mM. The TGI [51] was > 0.1 mM, the TGI [52] was > 0.1 mM and the TGI [53] was > 0.1 mM. The TGI [54] was > 0.1 mM, the TGI [55] was > 0.1 mM and the TGI [57] was > 0.1 mM. For the same compound, the TGI [58] was > 0.1 mM, the TGI [59] was > 0.1 mM and the TGI [60] was > 0.1 mM. For the same compound, the TGI [61] was > 0.1 mM, the TGI [63] was > 0.1 mM and the TGI [64] was > 0.1 mM. The TGI [65] was > 0.1 mM, the TGI [66] was > 0.1 mM and the TGI [67] was > 0.1 mM. The TGI [68] was > 0.1 mM and the TGI [69] was > 0.1 mM.
